Literature values in US9631212B2, “Gene cluster for biosynthesis of cornexistin and hydroxycornexistin” (BASF SE, priority 2012, dated 2017).
Where two headings read alike, the source gives them in different places.

How the values were obtained:
[1] = in vivo
[2] = tested on: corn plants

| Compound | activity as a herbicide [1] | activity as a herbicide ([1]; listed as Cornexistin) | activity towards corn plants [2] | activity towards corn plants ([2]; listed as Cornexistin) |
| --- | --- | --- | --- | --- |
| C/C=C1/CC2=C(C(=O)OC2=O)[C@H](CCC)[C@H](O)C(=O)C[C@@H]1O [cornexistin] | highly potent herbicides | good activity as a herbicide | harmless to corn plants | relative inactivity towards corn plants |
| CCC[C@H]1C2=C(C/C(=C/CO)[C@@H](O)CC(=O)[C@H]1O)C(=O)OC2=O [hydroxycornexistin] | highly potent herbicides |  | harmless to corn plants |  |
